According to US20260266848A1, “COMPOSITIONS AND METHODS FOR DIAGNOSING AND TREATING DYSTONIA” (Duke University, priority 2023, published 2026):

What was measured:
DYT-TOR1A MEF EVs = assay: Quantitative LC-MS/MS proteomics of EVs from drug-treated DYT-TOR1A MEF cultures (ritonavir, salubrinal); format: cell-based, mouse; set-up: key to RTV Corrective Direction / RTV Corrective Direction, Grwd1 / RTV Corrective Direction, Srrm2 / RTV Corrective Direction, Rbm17 / RTV Corrective Direction, Dcaf8 / RTV Corrective Direction, Edil3 / RTV Corrective Direction, Timp3 / RTV Corrective Direction, Heatr3 / RTV Corrective Direction, Brd4 / RTV Corrective Direction, P3h4 / RTV Corrective Direction, Pacsin3 / RTV Corrective Direction, Naa50 / RTV Corrective Direction, Lpar6 / RTV Corrective Direction, Ndrg1 / RTV Corrective Direction, Kntc1 / RTV Corrective Direction, Cdk11b / RTV Corrective Direction, Sumo1 / RTV Corrective Direction, Lsm4 / RTV Corrective Direction, Hmga2 / RTV Corrective Direction, Cstf1 / RTV Corrective Direction, Tes / RTV Corrective Direction, Sbno1 / RTV Corrective Direction, Unc119b / RTV Corrective Direction, Cfdp1 / RTV Corrective Direction, Sec61b: YES = protein abundance effect opposite to DYT/WT; conditions: EV protein abundance; for RTV Corrective Direction: DYT + RTV (ritonavir) vs DYT, direction compared with DYT/WT; for DYT + RTV/DYT Cohen's d: ritonavir (RTV)-treated DYT vs DYT
WT MEF EVs = assay: Quantitative LC-MS/MS proteomics of EVs from ISRIB-treated WT MEF cultures; format: cell-based, mouse; set-up: key to ISRIB and DYT Parallel Direction / ISRIB and DYT Parallel Direction, Ctdsp1 / ISRIB and DYT Parallel Direction, Pcdh19 / ISRIB and DYT Parallel Direction, Tspan7 / ISRIB and DYT Parallel Direction, Myo1e / ISRIB and DYT Parallel Direction, Plpp3 / ISRIB and DYT Parallel Direction, Sh3bp4 / ISRIB and DYT Parallel Direction, Dnajc7 / ISRIB and DYT Parallel Direction, Drg1 / ISRIB and DYT Parallel Direction, Maea: YES = protein abundance effect similar to DYT/WT; conditions: EV protein abundance; for WT + ISRIB/WT Cohen's d: ISRIB-treated WT vs WT; for ISRIB and DYT Parallel Direction: WT + ISRIB vs WT, direction compared with DYT/WT

| Substance | RTV Corrective Direction (DYT-TOR1A MEF EVs) | DYT + RTV/DYT Cohen's d (DYT-TOR1A MEF EVs) | WT + ISRIB/WT Cohen's d (WT MEF EVs) | ISRIB and DYT Parallel Direction (WT MEF EVs) |
| --- | --- | --- | --- | --- |
| Cnot1 | YES | 5.54 | −2.56 | YES |
| Col5a1 | YES | −0.89 | 0.06 | YES |
